One substance from PMC8968665, “Verteporfin is a substrate-selective γ-secretase inhibitor that binds the amyloid precursor protein transmembrane domain” (The Journal of Biological Chemistry, 2022) can be followed below.

Several values for one entry are separate records, joined by “and”; a condition that tells them apart may be missing. Identical values can stand only once. Like-named read-outs stand apart in the source and are kept apart here.

The target in experiment [1] is T1, C99 domain of the human amyloid precursor protein (Homo sapiens, UniProt P05067).
T1 construct: the transmembrane 99 residue C-terminal (C99) domain; His tag (either the C-terminal hexa-His that is kept, or the N-terminal His of C99-NT2 removed by thrombin); made in house; host or cells: E. coli BL21DE3
Briefly: TROSY NMR titration of C99 by verteporfin, fit to 1:1 binding model. Here is the method:
The preparation of NMR screening samples consisted of final concentrations of 50 μM C99, 2.5% w/v LMPG, […] buffer imidazole, 5% v/v D2O, 0.5 mM EDTA, pH 6.5. To ensure that these final conditions were maintained, the individual components of the screening samples were added from stocks in a specific order. For example, to make 10 ml of screening sample in imidazole NMR buffer, the following was added: (1) 10 by 250 μl frozen stocks of 200 μM protein were thawed on ice and transferred to a 15 ml conical vial; (2) 1.25 ml of 20% w/v LMPG stock (dissolved in H2O) was added to the conical vial, which was mixed by vortexing; (3) 1 ml of 10× concentrated imidazole NMR buffer was added to the conical vial and mixed by vortexing; (4) the sample was then diluted to 10 ml by adding 4.75 ml of ddH2O and 0.5 ml of D2O and allowed to reach equilibrium for at least 60 min. This final pool contained 50 μM C99, 25 mM imidazole, 100 mM NaCl, 2.5% LMPG, 5% v/v D2O, 0.5 mM EDTA, pH 6.5. At that point, the samples (199 μl for each well) were distributed into 96-well plates containing predispensed compounds, thoroughly mixed by pipette, and the complete 200 μl mixtures were transferred to 3 mm x 4 inch NMR tubes. At this point, each 3 mm NMR tube contained a 200 μl sample of 50 μM C99, 50 μM Compound, 25 mM imidazole, 100 mM NaCl, 2.5% w/v LMPG, 5% v/v D2O, 0.5% v/v DMSO, 0.5 mM EDTA, pH 6.5. Loaded NMR tubes were cleaned with 100% Ethanol on a kimwipe, securely capped, and transferred to an NMR tube rack compatible with a Bruker SampleJet system.
A Bruker Avance III 600 MHz NMR spectrometer equipped with a cryoprobe (CPTCI) and automated sample changer (SampleJet) was used to collect NMR spectra. Sample details are described above. For high-throughput screening data collection, the ^15N-^1H BEST-TROSY (b_trosy3gpph.2) experiment with 64 scans for each of 96 increments and a relaxation delay of 200 ms was run at 318 K for a total data acquisition time of 35 min per sample. To achieve enhanced signal-to-noise ratio, follow-up titrations and control experiments were conducted using the BEST-TROSY pulse program with 200 scans per 96 increments at 318 K, for a total data acquisition time of 110 min per sample. Data were processed using Bruker Topspin 3.6 using a Gaussian window function with a line broadening of -10 and a Gaussian max of 0.1 in both dimensions. NMR data were then further processed and analyzed using NMR-FAM SPARKY, plotted using GraphPad Prism 9, and prepared for publication figures using Affinity Designer.
2D ^15 N-^1H HSQC NMR data used to calculate dissociations constant (KD) values by first normalizing 2D data using the established formula ([78]) (Equation 1):(1) δ(1H,15N)=√(1/2[δ2H+.14∗δ2N]) Where δ(1H,15N) is the square root of linear chemical shifts in each respective dimension, δH and δN with the Nitrogen normalization factor of 0.14.
After 2D normalization, the data were fit to a hyperbolic binding isotherm using one of the following formulas depending of the data:(2) Y=Bmax∗X/(KD+X)+NS∗X
For this equation, Y is the total binding, Bmax is the maximum binding in the same units as Y, X is the added ligand in molar units, KD is the equilibrium dissociation constant in the same units as X, and NS is a linear term to account for either vehicle or nonspecific verteporfin effects.(3) Y=Bmax∗X/(KD+X)
For this equation, Y is the total binding, Bmax is the maximum binding in the same units as Y, X is the added ligand in molar units, KD is the equilibrium dissociation constant in the same units as X. 1D NMR-binding curves were generated by directly inputting 1D chemical shift perturbations directly into the proper version of Equation 2. Peak height data, such as that quantified in Figures 4 and S4, were first generated using the peak-picking function in NMRFAM Sparky, and peak heights as a function of ligand concentration were used to generate a KD by addition into Equation 2.

Experiment [2] addresses T2, γ-secretase cleavage of C100-Flag (C99) (Homo sapiens, UniProt P05067).
T2 construct: C100 is C99 with an added N-terminal Met residue; made in house
As to the kind of experiment: γ-Secretase assay, C100-FLAG cleavage, AICD by anti-Flag Western blot. Format: biochemical. As to the method: The γ-secretase-dependent proteolysis assays with both substrates (C100-FLAG and HexaHis Notch 1 JM/TM) were performed in a weak zwitterionic detergent (CHAPSO, 3-[(3- cholamidopropyl)dimethylammonio]-2-hydroxy-1-propanesulfonate) solubilized conditions ([79], [80]). C100 is C99 with an added N-terminal Met residue. […] Proteolytic reactions were initiated by adding purified substrates (either C100-FLAG(79) or HexaHis-Notch 1 JM/TM(77)) and incubating at 37 °C (16 h for C100Flag and 4 h for HexaHis-Notch 1 JM/TM). Reactions were quenched with SDS, and the cleaved intracellular domain products (AICD-FLAG released from C100-FLAG or truncated intracellular domain (NICD) released from the proteolysis of Hexa-His Notch 1 JM/TM) were visualized by Western blot using specific primary antibodies, anti-FLAG antibody for FLAG-tagged AICD, and neoepitope-specific anti-V1744 antibody for NICD ([80], [83], [84]).

T2 sequence (P05067 672-770 limits assumed): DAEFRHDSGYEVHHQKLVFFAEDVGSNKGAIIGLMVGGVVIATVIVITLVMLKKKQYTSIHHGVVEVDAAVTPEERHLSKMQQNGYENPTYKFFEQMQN
T1 sequence (P05067 672-770 limits assumed): as above

Usually Kd stands for the free concentration of one partner at which half of the binding sites on the other are occupied at equilibrium, for simple one-to-one binding. As usually defined, the IC50 is the midpoint of a concentration-inhibition curve. verteporfin: the Kd in experiment [1] (C99 in model membranes, read-out: KD of 1:1 complex) is approximately 17 µM; in experiment [1] (D6PC/DMPC (q = 0.33) bicelles, n = 1, error of the fit, Fig. 3C, read-out: KD from C99 peak E766), 17 ± 4 µM; in experiment [1] (D6PC/DMPC (q = 0.33) bicelles, n = 1, error of the fit, Fig. 3C, read-out: KD from C99 peak T761), 16 ± 4 µM; in experiment [1] (LMPG micelles, 50 μM C99, pH 6.5, 318 K, 1:1 binding model, read-out: average dissociation constant (KD) across multiple residues in and around the TM domain) it was 17 ± 11 µM; in experiment [1] (depending on the membrane mimetic used (LMPG, DDMB micelles, DHPC-DMPC bicelles), read-out: KD range across membrane mimetics) it was 15 to 47 µM and 10 to 50 µM; in experiment [1] (nonionic DDMB micelles, n=1, error of the fit, Fig. S2C, read-out: KD from fitting of two different peaks), 43 µM and 47 µM. The Kd in experiment [1] (untagged C99 in DDMB micelles, Fig. S2 title, read-out: KD) was 45 ± 22 µM. The IC50 is 164 ± 45 µM in experiment [2] (30 nM purified γ-secretase, C100-Flag, 16 h, 37 °C, n = 3, read-out: IC50, inhibition of AICD production) and 15 to 164 µM in experiment [2] (depending on assay conditions (1 nM to 30 nM enzyme), read-out: IC50 range for γ-secretase cleavage of C99). Further, in experiment [2] (30 nM γ-secretase), the “degree of inhibition of C99 cleavage at saturating verteporfin” value is reported as “approximately 75%”. For the same substance, the “C100-Flag cleavage efficiency (Western blot)” value in experiment [2] (100 µM verteporfin, 2 µM C100-Flag, 1 nM γ-secretase, Fig. S6A) is given as “greatly reduced”.
